The text below walks through data of patent US20230348419A1, “BIAMINOQUINOLINES AND NANOFORMULATIONS FOR CANCER TREATMENT” (The Regents of the University of California, priority 2019, published 2023).

Like-named read-outs stand apart in the source and are kept apart here.

Data set [1] is described as follows: Drug loading using BAQ13 NPs. The class given is physicochemical. How it is done: (§1) Preparation and characterization of BAQ ONNs. NPs were prepared through the re-precipitation method. BAQ derivatives in methanol were added dropwise into MilliQ water while stirring for 5 min (volume ratio, 1:10), and then homogenous NPs were obtained after rotary evaporation (40° C., 20 min), followed by the characterization with Zetasizer Nano ZS (Malvern). The TEM samples were prepared by dropping 0.5 mM NPs on carbon square mesh and dried naturally, which were then observed under the Talos L120C TEM (FEI) at an accelerating voltage of 80 kV. To determine the drug content in nanoformulations, the prepared drug-loaded NPs were cut off by centrifugal filter (ultracel-10 kDa, Millipore), and the absorbance of filtrate (diluted with DMSO, 1:10, volume ratio) was measured for calculation of drug concentrations.
Next investigation was whether liposome-like BAQ ONNs can encapsulate additional agents. Upon nanoprecipitation of BAQ13 and various agents, homogeneous NPs with monomodal size distributions spontaneously formed (Table 2 and FIG. 9G).

Another data set relates to PCSC tumours. In words: PCSC xenograft model. The class given is in vivo, NRG mice. The conditions noted are these: combination therapy study, every three days. From the text:
In vivo treatment schedule.

The subject of data set [2] is autophagy (LC3B-II, SQSTM1/p62) in MIA PaCa-2 cells. In words: Autophagy inhibition (immunoblot, LC3B-GFP imaging, TEM). The class given is cell-based, human. The conditions noted are these: western blotting, compared to untreated and Lys05-treated cells. The method, then:
LC3B-GFP imaging. Cells in a 96-well plate (5,000 cell per well) were transfected by the autophagy sensor LC3B-GFP (Thermo Fisher) for 12 h. After treated as indicated for 4 h, cells were visualized by a fluorescence microscope (Olympus). The puncta per well were quantified using ImageJ 1.51s.
Western Blot. The cell or tumour samples were lysed with RIPA Buffer (Thermo Fisher). After centrifugation at 4° C. (15 min, 12,000×g), the concentrations of proteins in supernatant and determined by Bradford Protein Assay dye (Bio-Rad). Immunoblotting was performed routinely and were developed using a ChemiDoc™ MP imaging system.
TEM of cells and tumour tissue. MIA PaCa-2 cells in 8-well slide plates (30,000 cell per well, Lab-Tek) were treated as indicated for 48 h. The freshly harvested tumours were cut into 1 mm^3 pieces. Samples were fixed with the 0.1 M cacodylate buffer containing 2.5% glutaraldehyde plus 2% paraformaldehyde, and transferred onto carbon square mesh, followed by observation under Talos L120C TEM.
(In western blotting, separated proteins are transferred to a membrane and probed.)

The test system of data set [3] is three pancreatic cancer cell lines (MIA PaCa-2, BxPC-3, and PANC-1) and two colon cancer cell lines (HT29 and HCT116). In words: 48 h MTS assay on pancreatic and colon cancer cell lines. The class given is cell-based. The method, then: (§2) Cell viability, cell growth and colony formation. Cell viability was assessed by the MTS assay. Briefly, cells in 96-well plates (4,000 cell per well) were treated as indicated, followed by the incubation with MTS regents for 4 h. OD values (490 nm) were determined via a microplate reader. Results were shown as the average cell viability calculated from the formula of [(ODtreat−ODblank)/(ODcontrol−ODblank)×100%]. Drug combination data were analyzed by Combenefit 2.02. In cell growth assay, cells in 6-well plates (50,000 cell per well) were treated as indicated and were counted manually every 24 h. Colony formation assay was also performed on 6-well plates with a starting density of 1,000-2,000 cells per well. After incubated as indicated for 10-20 days, cells were washed with PBS and stained with the solution of crystal violet and methanol for 20 min.
In vitro antitumour activity of BAQ derivatives. To systematically investigate the antitumour effects in vitro, three pancreatic cancer cell lines (MIA PaCa-2, BxPC-3, and PANC-1) and two colon cancer cell lines (HT29 and HCT116) were selected for a 48 h MTS assay. […] The improved anticancer activity of BAQ ONNs is attributable to their multiple functions in inducing LMP, lysosomal dysfunction and autophagy inhibition in cancer cells; these effects are considered to be important triggers of apoptosis. To examine the proapoptotic effects of BAQ ONNs, apoptosis signals in MIA PaCa-2 and HT29 cells was subsequently detected. […] Lys05, the control, increased apoptotic signals in a concentration-dependent manner, but its effect at a high concentration close to the IC50 was still milder than those of the low concentrations of BAQ ONNs.

Data set [4] concerns various cancer cell lines. In words: Preliminary MTS screening, 24 h. Particulars: 24 h MTS. The class given is cell-based. How it is done: To verify the therapeutic effects of BAQ12-BAQ18, a preliminary screening was conducted using an MTS assay on various cancer cell lines. […] This decrease was due to gradual declines in the detergence and H^+ buffering capacity of compounds. Based on the results above, BAQ12 and BAQ13 were then selected as representatives for construction of BAQ ONNs in the following studies.
as §2

The test system of a further data set is MIA PaCa-2 cells. In words: RNA sequencing, differentially expressed genes. The class given is cell-based, human. The conditions noted are these: 5 μM, 24 h, vs vehicle. How it is done:
RNA-seq. Total RNA was extracted by the RNeasy Mini Kit (Qiagen, Germany) from the treated MIA PaCa-2 cells (5 μM, 24 h). Samples were submitted to the UC Davis Comprehensive Cancer Center's Genomics Shared Resource (GSR) for RNA-Seq analysis. Stranded RNA-Seq libraries were prepared from 100 ng total RNA using the NEBNext Ultra Directional RNA Library Prep Kit (New England BioLabs). Subsequently, libraries were combined for multiplex sequencing on an Illumina HiSeq 4000 System (2×150 bp, paired-end, >20×10^6 reads per sample). The data of normalized genes read counts were analyzed using fold change and t test. The Differentially expressed genes (DEGs) were collected for the signaling pathways enrichment by Funrich software 3.1.3. The gene sets were from MSigDB database (Broad Institute). GSEA was performed using GSEA version 3.0 in KEGG gene sets category online, with the following parameters: n=1,000 permutations, where p-adjust <0.05, and FDR <0.05 were considered significant.

The test system of another data set is HT29. In words: MTS cell viability assay. The class given is cell-based. The conditions noted are these: read-out: IC50 (μM) in the 24 h treatment HT29. The method, then:
(§3) Cell line and cell culture. The human pancreatic cancer cell lines (MIA PaCa-2, BXPC3, and PANC-1) were originally purchased from ATCC and were kindly provided by Dr. Shiro Urayama's Lab. HT29, HCT116, H460, MCF7, NIH/3T3, and IMR-90 cell lines were purchased from ATCC. Bone marrow cells were collected from the leg bone marrows of FVB/N mice. All the cells were cultured at 37° C. in a humidified atmosphere of 5% CO2/95% air using the corresponding medium supplemented with 10% fetal bovine serum, […] according to ATCC protocol. All the cell lines have been tested for mycoplasma contamination routinely.
as §2
For orientation: Tetrazolium dyes change colour on reduction, which living cells bring about.

The test system of a further data set is MCF-7. In words: MTS cell viability assay. The class given is cell-based. The conditions noted are these: 24 h; read-out: IC50 (μM) in the 24 h treatment MCF-7. The method, then: as §3, §2
A further data set concerns H460. Briefly: MTS cell viability assay. The class given is cell-based. Particulars: 24 h; read-out: IC50 (μM) in the 24 h treatment H460. The method, then:
as §3, §2

Data set [5] can be described thus: Nanoparticle characterization of BAQ NPs (DLS, TEM). The conditions noted are these: assembled NPs in water. The class given is physicochemical. The method, then:
as §1

The next data set has as its system BXPC-3. In words: MTS cell viability assay. The class given is cell-based, human. The conditions noted are these: 24 h; read-out: IC50 (μM) in the 24 h treatment BXPC-3. How it is done: as §3, §2
The next data set relates to MIA PaCa-2. Briefly: MTS cell viability assay. The class given is cell-based, human. The conditions noted are these: read-out: IC50 (μM) in the 24 h treatment MIA PaCa-2. The method, then:
as §3, §2

The test system of a further data set is PANC-1. Briefly: MTS cell viability assay. The conditions noted are these: 24 h; read-out: IC50 (μM) in the 24 h treatment PANC-1. The class given is cell-based, human. The method, then: as §3, §2
For a further data set, the system named is HCT116. In words: MTS cell viability assay. The class given is cell-based. Particulars: Homo sapiens, HCT-116, 48 h; read-out: IC50 values from the 48 h MTS assay (μM) HCT116. How it is done: as §3, §2
The subject of the next data set is HT29 tumours. In words: HT29 xenograft model. Particulars: mice bearing HT29 tumours.
The nature of data set [6]: Titration with hydrochloric acid (pH buffering capacity). The class given is physicochemical. The conditions noted are these: 1 mM, 0.1 M HCl.
In a further data set the test system is Red blood cells. Briefly: pH-dependent haemolysis test. The class given is cell-based. The conditions noted are these: whole pH range, same concentration (50 μM, 4 h).
For another data set, the system named is OSC-3 cells. Briefly: PBC NPs in OSC-3 cells (lysosomes, apoptosis, photodynamic therapy). The class given is cell-based. Particulars: LC3-GFP-RFP imaging and immunoblotting.
[7] abbreviates: BAQ13 NPs loaded with the drug or dye.

`CC(=O)c1cc2c(o1)C(=O)c1ccccc1C2=O` [Napabucasin]: in data set [1] (setting [7]), the PDI amounted to 0.101 and the Size/diameter is 110 nm. This compound also had an Encapsulation efficiency in data set [1] (drug or dye loaded in BAQ13 NPs) of 85%. In [1] (drug or dye loaded in BAQ13 NPs, mass ratio), the Drug-loading content is listed as 20%. The tumour growth result in the data set on PCSC tumours was “no antitumour effect”.
Regarding `CO/C1=C\C(C)=C\[C@@H](C)[C@@H](O)[C@@H](C)C/C(C)=C/C=C/[C@H](OC)[C@@H]([C@@H](C)[C@@H](O)[C@H](C)[C@@]2(O)C[C@@H](O)[C@H](C)[C@@H](C(C)C)O2)OC1=O` [bafilomycin A1], the “LC3B-II and SQSTM1/p62 protein levels” value in data set [2] is reported as “Such increases were also observed”.
The term IC50 denotes the concentration that gives 50% inhibition. As to `CCCCCCCCCCCCCN(CCNc1ccnc2cc(Cl)ccc12)CCNc1ccnc2cc(Cl)ccc12` [BAQ13], in [3], the “effect alone versus combination treatment with Lys05 and MSDH” value is “more effective than combination treatment with Lys05 and MSDH”; the “fold more potent than HCQ” value is 30 fold. In addition, in data set [4], the “fold higher potency than HCQ” value is given as roughly 20 fold, the “fold higher potency than Lys05” value is roughly 3 fold and the “fold higher potency than MSDH” value was roughly 10 fold. In the data set with MIA PaCa-2 cells, the downregulated genes is recorded as 181 and the upregulated genes was 209. Moreover, in the data set on MIA PaCa-2 cells (fold change≥2 and p value≤0.05), the “differentially expressed genes (DEGs)” value is listed as 390. Moreover, the IC50 in the data set with HT29 (24 h) amounted to 3 ± 1.1 µM. Also, the IC50 with MCF-7 worked out at 3.7 ± 0.3 µM. In addition, in the data set with H460, the IC50 worked out at 2.2 ± 0.4 µM. Moreover, the “Zeta Potential (mV)” value in [5] is listed as 39.7 ± 1.9 mV. Moreover, in data set [5] (DLS), the PDI was found to be 0.097 and the “Size (nm)” value amounted to 99.1 ± 2.1 nm. Moreover, the IC50 in the data set with BXPC-3 worked out at 3.1 ± 0.2 µM. The IC50 in the data set on MIA PaCa-2 (24 h) was 4.2 ± 1 µM. Besides, the IC50 in the data set with PANC-1 amounted to 4.3 ± 1 µM.
Consider `CCc1c2c(nc3ccc(OC(=O)N4CCC(N5CCCCC5)CC4)cc13)-c1cc3c(c(=O)n1C2)COC(=O)[C@]3(O)CC` [Irinotecan], for which the IC50 in the data set on HCT116 stood at 17 ± 1 µM. Also, the Median Survival with HT29 tumours (survival analysis in text) and in the data set with HT29 tumours (treatment terminated on the 24th day) was 36 days in each case.
Turning to `CCCCCCCCCCCCNC(=O)[C@@H](N)COC.Cl` [MSDH, O-Methyl-Serine-Dodecylamide Hydrochloride], the IC50 in the data set with HT29 (Homo sapiens, HT-29, 24 h) came out at 30.3 ± 4.8 µM; in the data set on MIA PaCa-2 (Homo sapiens, MIA PaCa-2, 24 h), 55.5 ± 7.1 µM. In addition, the “pH plateau upon titration with HCl” value in [6] is 6.2. In addition, in the data set with Red blood cells, the “haemolytic response to pH” value is given as “only a weak haemolytic response to pH”.
On to pheophorbide a, for which, in the data set on OSC-3 cells, the induction of autophagy result was “induced autophagy”.
